Measurements taken from BindingDB's records for doi:10.1038/sj.bjp.0701367 (Kyoto University, 1997).

What was measured:
[1] = target: Prostaglandin E2 receptor EP2 subtype (Mus musculus, UniProt Q62053)
[2] = target: T1, Prostaglandin E2 receptor EP3 subtype (Mus musculus, UniProt P30557)
T1 sequence (P30557 whole entry): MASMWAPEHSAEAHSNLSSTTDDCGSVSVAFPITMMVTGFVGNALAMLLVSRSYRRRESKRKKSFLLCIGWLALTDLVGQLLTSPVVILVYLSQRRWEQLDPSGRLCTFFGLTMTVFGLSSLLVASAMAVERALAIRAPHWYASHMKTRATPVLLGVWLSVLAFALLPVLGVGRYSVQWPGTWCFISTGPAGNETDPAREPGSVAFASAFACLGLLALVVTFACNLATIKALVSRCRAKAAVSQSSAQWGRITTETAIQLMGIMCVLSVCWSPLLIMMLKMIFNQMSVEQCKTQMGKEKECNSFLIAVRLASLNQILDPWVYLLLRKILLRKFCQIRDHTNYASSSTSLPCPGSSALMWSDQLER

Prostacyclin receptor = Prostacyclin receptor (Mus musculus, UniProt P43252)
[3] = target: Prostaglandin F2-alpha receptor (Mus musculus, UniProt P43117)
Thromboxane A2 receptor = target: T2, Thromboxane A2 receptor (Mus musculus, UniProt P30987)
T2 sequence (P30987 whole entry): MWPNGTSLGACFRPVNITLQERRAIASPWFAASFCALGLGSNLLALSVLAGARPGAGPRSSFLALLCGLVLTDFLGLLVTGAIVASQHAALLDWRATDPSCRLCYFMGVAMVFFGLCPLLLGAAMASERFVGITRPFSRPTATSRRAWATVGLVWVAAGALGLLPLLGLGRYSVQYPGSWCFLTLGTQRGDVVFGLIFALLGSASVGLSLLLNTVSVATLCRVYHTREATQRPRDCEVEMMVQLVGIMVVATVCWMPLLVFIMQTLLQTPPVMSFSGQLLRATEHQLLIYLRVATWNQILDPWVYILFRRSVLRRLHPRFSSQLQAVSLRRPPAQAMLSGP

[4] = target: T3, Prostaglandin E2 receptor EP1 subtype (Mus musculus, UniProt P35375)
T3 sequence (P35375 whole entry): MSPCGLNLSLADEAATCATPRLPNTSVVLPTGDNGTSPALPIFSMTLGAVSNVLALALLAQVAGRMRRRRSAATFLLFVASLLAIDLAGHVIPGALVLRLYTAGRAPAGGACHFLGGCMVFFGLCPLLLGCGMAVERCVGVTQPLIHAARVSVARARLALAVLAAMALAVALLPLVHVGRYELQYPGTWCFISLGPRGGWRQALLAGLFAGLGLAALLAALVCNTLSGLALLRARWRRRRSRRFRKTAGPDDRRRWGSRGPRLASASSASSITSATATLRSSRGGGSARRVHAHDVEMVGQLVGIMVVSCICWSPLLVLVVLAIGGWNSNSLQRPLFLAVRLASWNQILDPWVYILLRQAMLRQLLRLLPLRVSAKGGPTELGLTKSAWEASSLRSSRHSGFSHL

[5] = target: Prostaglandin E2 receptor EP4 subtype (Mus musculus, UniProt P32240)
Prostaglandin E2 receptor EP4 subtype, sequence (P32240 whole entry): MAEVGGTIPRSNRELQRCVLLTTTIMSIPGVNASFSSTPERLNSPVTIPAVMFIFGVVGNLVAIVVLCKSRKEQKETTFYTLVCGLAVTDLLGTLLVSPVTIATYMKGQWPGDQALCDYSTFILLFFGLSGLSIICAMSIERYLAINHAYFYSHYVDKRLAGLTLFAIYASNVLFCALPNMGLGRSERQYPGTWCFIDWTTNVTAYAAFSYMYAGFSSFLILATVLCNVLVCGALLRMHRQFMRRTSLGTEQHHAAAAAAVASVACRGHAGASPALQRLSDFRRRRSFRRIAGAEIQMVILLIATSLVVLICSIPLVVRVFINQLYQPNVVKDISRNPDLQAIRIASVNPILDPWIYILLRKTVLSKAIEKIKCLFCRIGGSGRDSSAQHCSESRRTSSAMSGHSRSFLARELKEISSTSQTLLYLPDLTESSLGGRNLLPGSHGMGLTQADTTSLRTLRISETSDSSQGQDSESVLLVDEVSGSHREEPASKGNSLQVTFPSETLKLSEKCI

Prostaglandin E2 receptor EP2 subtype, sequence (Q62053 whole entry): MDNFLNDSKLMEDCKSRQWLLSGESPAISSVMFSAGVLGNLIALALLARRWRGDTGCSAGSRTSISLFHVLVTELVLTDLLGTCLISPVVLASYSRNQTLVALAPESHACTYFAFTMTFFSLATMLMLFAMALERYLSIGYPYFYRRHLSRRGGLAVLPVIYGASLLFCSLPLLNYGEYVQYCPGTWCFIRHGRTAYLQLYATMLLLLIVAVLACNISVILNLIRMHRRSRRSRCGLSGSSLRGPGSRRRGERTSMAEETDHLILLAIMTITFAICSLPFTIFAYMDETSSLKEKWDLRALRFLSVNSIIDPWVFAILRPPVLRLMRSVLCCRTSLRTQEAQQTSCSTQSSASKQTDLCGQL
Prostaglandin F2-alpha receptor, sequence (P43117 whole entry): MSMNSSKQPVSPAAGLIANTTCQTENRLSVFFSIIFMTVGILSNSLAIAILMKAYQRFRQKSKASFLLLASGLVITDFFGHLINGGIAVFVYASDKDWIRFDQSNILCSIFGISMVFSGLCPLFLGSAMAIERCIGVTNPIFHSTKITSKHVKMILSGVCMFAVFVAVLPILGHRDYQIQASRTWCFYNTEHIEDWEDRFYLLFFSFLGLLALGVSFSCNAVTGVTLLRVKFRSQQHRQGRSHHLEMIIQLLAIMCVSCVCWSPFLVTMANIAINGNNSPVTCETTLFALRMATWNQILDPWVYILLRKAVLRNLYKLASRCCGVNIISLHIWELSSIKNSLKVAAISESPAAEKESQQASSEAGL
Prostacyclin receptor, sequence (P43252 whole entry): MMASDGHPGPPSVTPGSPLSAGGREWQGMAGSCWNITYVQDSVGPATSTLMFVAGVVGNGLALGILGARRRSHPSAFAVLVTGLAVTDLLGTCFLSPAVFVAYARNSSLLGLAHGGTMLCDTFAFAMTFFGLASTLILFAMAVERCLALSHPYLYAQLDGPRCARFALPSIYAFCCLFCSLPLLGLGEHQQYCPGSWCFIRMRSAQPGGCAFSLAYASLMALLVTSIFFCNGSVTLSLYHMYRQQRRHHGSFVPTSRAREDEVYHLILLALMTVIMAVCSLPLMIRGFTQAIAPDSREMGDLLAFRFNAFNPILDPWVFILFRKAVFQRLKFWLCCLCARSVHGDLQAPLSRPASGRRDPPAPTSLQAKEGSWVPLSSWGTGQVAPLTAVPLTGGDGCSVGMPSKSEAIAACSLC

SMILES | Ki [1] [nM] | Ki [2] [nM] | Ki (Prostacyclin receptor) [nM] | Ki [3] [nM] | Ki (Thromboxane A2 receptor) [nM] | Ki [4] [nM] | Ki [5] [nM]
CCC#CCC(C)C(O)C#CC1C(O)CC2CC(=CCOCC(=O)O)CC21 (configuration not stated) [CAS_94079-80-8] | 1300 | 170 | 10 | – | – | – | –
O=C(O)CCCCCCc1c(O)[nH]c(=O)n1CCC(O)C1CCCCC1 (configuration not stated) [NSC_3080928] | – | – | – | 1700 | – | – | –
O=C(O)CCC/C=C\C[C@H]1[C@@H]2CCC(O2)[C@@H]1/C=C/[C@@H](O)COc1ccc(I)cc1 [I-BOP] | 220 | 100 | – | 100 | 0.56 | – | –
O=C(O)CCC/C=C\C[C@H]1C(=O)C[C@@H](O)[C@@H]1/C=C/[C@@H](O)CCc1ccccc1 [17-PHENYL TRINOR PROSTAGLANDIN E2] | – | 3.7 | – | 60 | – | 14 | 1000
CCCCCC(O)c1ccc(C2CCC(=O)C2CCCCCCC(=O)O)cc1 (configuration not stated) [CAS_132836] | 240 | 82 | – | – | – | – | –
CCCCC[C@H](O)/C=C/[C@@H]1[C@H]2C/C(=C\CCCC(=O)O)C[C@H]2C[C@H]1O | 1600 | 31 | 110 | 1200 | – | – | 2300
CC(C)Oc1ccc2c(=O)c3cc(C(=O)O)ccc3oc2c1 [CAS_33458-93-4] | 350 | – | – | – | – | – | –
CCCCC[C@H](O)/C=C/C1[C@H](O)C[C@H](O)[C@@H]1C/C=C\CCCC(=O)O (stereo partly drawn) [(Z)-7-[(1R,3R,5S)-3,5-Dihydroxy-2-((E)-(S)-3-hydroxy-oct-1-enyl)-cyclopentyl]-hept-5-enoic acid] | – | 75 | – | – | – | 1300 | –
CCCCC[C@H](O)/C=C/C1C[C@H]2C[C@H](S2)[C@@H]1C/C=C\CCCC(=O)O (some centres not stated) [STA2] | 220 | 23 | – | 97 | 14 | – | 350
O=C(O)CCCCCCC1C(=O)CCC1C=CC(O)COc1ccccc1 (configuration not stated) [CAS_80558-61-8] | – | 0.68 | – | 124 | 1300 | 120 | 500
C[C@H](O)CCCC(O)C=CC1C(O)CC(=O)C1CC=CCCCC(=O)O (some centres not stated) [PGE2,19R(OH)] | – | – | – | 1000 | – | – | –
CCCCC(C)(C)C(O)C=CC1C(O)CC(=O)C1CC=CCCCC(=O)O (configuration not stated) | 17 | 1.9 | – | 350 | – | – | 43
CC#CCC(C)C(O)C=CC1C(O)CC2Oc3c(CCCC(=O)O)cccc3C21 (configuration not stated) [NSC_2352] | – | 110 | 16 | – | – | – | –
CS(=O)(=O)NC(=O)CCCC=CCC1C(=O)CC(O)C1C=CC(O)COc1ccccc1 (configuration not stated) [CAS_60325-46-4] | – | 0.6 | – | 580 | – | 21 | –
CCCCC(C)(O)CC=CC1C(O)CC(=O)C1CCCCCCC(=O)OC (configuration not stated) [MISOPROSTOL (Methyl Ester)] | 250 | 67 | – | – | – | 120 | 67
CCCCC[C@H](O)/C=C/[C@H]1[C@H](O)CC(=O)[C@@H]1C/C=C\CCCC(=O)O [DINOPROSTONE] | 12 | 0.85 | – | 100 | – | 20 | –
O=C(O)CC/C=C\CC[C@@H]1[C@@H](N2CCCCC2)[C@@H](O)C[C@@H]1OCc1ccc(-c2ccccc2)cc1 [GR 32191] | – | – | – | – | 12 | – | –
CCCCC[C@H](O)/C=C/C1[C@@H](C/C=C\CCCC(=O)O)[C@H]2CO[C@@H]1C2 (some centres not stated) [U46619] | – | – | – | 1000 | 67 | – | –
O=C(O)CCC/C=C\C[C@@H]1C(NS(=O)(=O)c2ccccc2)C2CC[C@@H]1C2 (single isomer, unassigned; (+)) [S 145] | – | – | – | – | 0.68 | – | –
CCCCCC(O)C=CC1CCC(=O)C1CCCCCCC(=O)O (configuration not stated) [PGE1,11-DEOXY] | 45 | 1.5 | 1000 | – | – | 600 | 23
CCCCC[C@@H](O)/C=C/[C@H]1[C@H](O)CC(=O)[C@@H]1CCCCCCC(=O)O | 10 | 1.1 | 33 | – | – | 36 | 2.1
CC#CCC(C)[C@H](O)/C=C/[C@@H]1[C@H]2C/C(=C/CCCC(=O)O)C[C@H]2C[C@H]1O (some centres not stated) | 1600 | 22 | 11 | – | – | 21 | 2300
CC1=C(CCON=C(c2ccccc2)c2cccnc2)c2cccc(OCC(=O)O)c2CC1 [NSC_128021] | – | 740 | 47 | – | – | – | –
CCCCCC(O)C=CC1C(O)CC2C=C(CCCCC(=O)O)CC21 (configuration not stated) [NSC_5311244] | 1000 | 31 | 15 | – | – | – | –
O=C(O)CCCC=CCC1C(O)CC(O)C1C=CC(O)COc1cccc(C(F)(F)F)c1 (configuration not stated) [CAS_40666-16-8] | – | – | – | 3.8 | – | – | –
O=C(CCC=CCCC1C(=O)CC(O)C1OCC(O)COc1ccccc1)Oc1ccc(NC(=O)c2ccccc2)cc1 (configuration not stated) [NSC_5311224] | – | 1.9 | – | – | – | – | 480
O=C(O)CCCCCCC1C(=O)CC(O)C1C=CC(O)CCCCCO (configuration not stated) [PGE1,1-OH] | – | 330 | – | – | – | – | 190
CCCC1([C@@H](O)C/C=C/C2[C@H](O)CC(=O)[C@@H]2CCCCCCC(=O)OC)CCC1 (some centres not stated) [Butaprost (Methyl Ester)] | 110 | – | – | – | – | – | –
CCCCCC(O)CC=C1C(=O)C=CC1CC=CCCCC(=O)O (configuration not stated) [CAS_41598-07-6] | – | 280 | – | 47 | – | – | –
